The values that follow come from US11898155B2, “Method for introducing molecule and composition containing inhibitor” (Pearl Kogyo Co., Ltd., priority 2017, dated 2024).

Test [1] deals with L-929 cells. As to the kind of experiment: Gene transfer efficiency (GFP-expressing cells/viable cell number, Cytell) after plasma introduction with inhibitor treatment. Format: cell-based, mouse. The following applies: for gene introduction rate: concentration of inhibitor changed, normalized to control without inhibitor = 1 (FIGS. 8 to 11). The procedure:
(§1) Mouse fibroblast L-929 cells were seeded on a 96-well plate and were cultured for 24 h in CO2 incubator. A culture medium was removed by aspiration, and 100 μL of nocodazole (inhibitor) free-culture medium, 1 μM nocodazole-containing culture medium, or 100 μM nocodazole-containing culture medium was added to each well. The cells were cultured for 30 min in CO2 incubator. Next, the culture medium was removed by aspiration, and 6.0 μg/6.0 μL of pAcGFP1-N1 plasmid (selected molecule) solution was added dropwise to each well. The 96-well plate was set in plasma irradiation equipment and irradiated with plasma. Then, 100 μL of culture medium was immediately added, and the plate was returned to CO2 incubator and the cells were cultured for 24 h. The cells after the culturing were observed under a microscope.
A selected molecule was introduced in the same manner as in Example 1, except the point that in the inhibitor treatment step using 1 μM nocodazole, the treatment time was changed from 1 min to 120 min. […] The dashed line denotes the level in the case without adding nocodazole (control, left panel). The gene transfer efficiency (%) was calculated, using a Cytell (Cytell Cell Imaging System, manufactured by GE Healthcare, Inc.), as (the number of GFP-expressing cells/viable cell number).
A selected molecule was introduced in the same manner as in Example 1, except the point that the cells were treated with 5 μM or 15 μM chloroquine diphosphate and the plasma irradiation time was changed.
A selected molecule was introduced in the same manner as in Example 1, except the point that the concentration of nocodazole was changed, to determine cell viability and gene transfer efficiency. The plasma irradiation conditions were at a frequency of 20 kHz, a voltage of 15 kVpp, and an inter-electrode distance of 1 mm and for an irradiation time of 1 msec.
Cell viability and gene transfer efficiency were determined in the same manner as in Example 4, except the point that chloroquine was used as the inhibitor.
Cell viability and gene transfer efficiency were determined in the same manner as in Example 4, except the point that LY-294002 was used as the inhibitor.
Cell viability and gene transfer efficiency were determined in the same manner as in Example 4, except the point that wortmannin was used as the inhibitor.

Test [2] deals with L-929 cells. The test is described as follows: GFP-expressing plasmid introduction by plasma irradiation after inhibitor treatment, microscope observation. To be noted: 1 μM or 100 μM nocodazole, 30 min before plasma irradiation; compared to the case without nocodazole treatment (FIGS. 2 to 4). Format: cell-based, mouse. The protocol: as §1
In Example 1, the plasma irradiation conditions were at a frequency of 20 kHz, a voltage of 15 kVpp, and an inter-electrode distance of 1 mm and for an irradiation time of 1 msec or 5 msec.

In test [3] the test system is MG63 cells. The test is described as follows: GFP plasmid introduction by plasma with nocodazole treatment before irradiation, microscope observation. Format: cell-based, human. The following applies: 1.0 μM or 0.1 μM nocodazole before plasma irradiation; vs without nocodazole treatment (FIG. 12). The protocol: as §1
An experiment was conducted in the same manner as in Experiment 1, except that cells (human osteosarcoma cells, MG63 cells) different from those in Example 1 were used. The concentration of nocodazole was 1 μM or 0.1 μM.

For another test, the system named is MDCK cells. The test is described as follows: GFP plasmid introduction by plasma with nocodazole treatment after plasma irradiation, microscope observation. In kind it is cell-based, canine. The following applies: 1.0 μM or 0.1 μM nocodazole for 30 min after plasma irradiation; vs without nocodazole treatment (FIG. 13). The protocol: (§2) By using cells (canine renal epithelial cell MDCK cells or human osteosarcoma cell MG63 cells) different from those in Example 1, gene transfer efficiency was examined when nocodazole treatment was performed after plasma irradiation. Specifically, the following protocol was used to conduct an experiment.
(§3) Canine renal epithelial cell MDCK cells or human osteosarcoma cell MG63 cells were each seeded on a 96-well plate and cultured for 24 h in CO2 incubator. The culture medium was removed by aspiration, and 6.0 μg/6.0 μL of pAcGFP1-N1 plasmid (selected molecule) solution was added dropwise to each well. The 96-well plate was set in plasma irradiation equipment and was irradiated with plasma. Then, 100 μL of nocodazole (inhibitor)-free culture medium, 1 μM nocodazole-containing culture medium, or 0.1 μM nocodazole-containing culture medium was added to each well. The cells were cultured for 30 min in CO2 incubator. After that, the culture medium was removed by aspiration and 100 μL of culture medium was added immediately. The plate was returned to CO2 incubator, and the cells were cultured for 24 h. The cells after the culturing were observed under a microscope. The plasma irradiation conditions were the same as in Example 1.

Test [4] has as its system MG63 cells. Described as above. In kind it is cell-based, human. The following applies: 1.0 μM or 0.1 μM nocodazole for 30 min after plasma irradiation; vs without nocodazole treatment (FIG. 14). The protocol: as §2, §3
Test [5] relates to L-929 cells. As to the kind of experiment: PCR quantification of remaining plasmid gene at 24 h after introduction. Format: cell-based, mouse. The following applies: 1 μM nocodazole, from Cq values (FIG. 15). The protocol:
A selected molecule was introduced into mouse fibroblast L-929 cells in the same procedure as in Example 1. The resulting cells were cultured for 24 h. […] The cultured cells were collected from eight wells, and a High Pure PCR Template Preparation Kit (manufactured by Roche, Inc.) was used to recover and purify DNA. Next, 50 ng of the purified DNA was added to a PCR reaction kit SYBR Green I (Fast Start Essential DNA Green Master, manufactured by Roche, Inc.). Each resulting mixture was subjected to 40 cycles of amplification using a PCR machine (LightCycler 96 system, manufactured by Roche, Inc.). […] Each Cq value refers to a value determined by calculating a cycle number after amplification of gene sequence of interest has started and before a quantitative increase (linear increase) is initiated. The cycle number indicated by each arrow in FIG. 15(B) refers to the Cq value. When many copies of the gene sequence of interest are contained, there is a rapid increase in amplification and the Cq value is small. In addition, the inverse number of Cq value is proportional to the initial amount of the gene sequence of interest.

For the molecule `O=c1cc(N2CCOCC2)oc2c(-c3ccccc3)cccc12` [LY-294002, 2-(4-morpholinyl)-8-phenyl-4H-1-benzopyran-4-one], in the test with L-929 cells [1] (plasma irradiation 1 msec), the gene introduction rate entry was “significantly increased”.
As for `CCN(CC)CCCC(C)Nc1ccnc2cc(Cl)ccc12` (stereo not drawn) [chloroquine], in the test with L-929 cells [1] (chloroquine 5 μM or 15 μM, plasma irradiation time 1 msec to 10 msec, vs cells without chloroquine treatment (std) (FIG. 7(B))), the gene transfer efficiency result is recorded as “increased”. Moreover, the gene introduction rate entry in the test on L-929 cells [1] (plasma irradiation 1 msec) was “significantly increased”.
Consider `COC(=O)Nc1nc2ccc(C(=O)c3cccs3)cc2[nH]1` [nocodazole], for which the “number of GFP-expressing cells” value is “increased” with L-929 cells [2], “increased” with MG63 cells [3], “increase” in the test with MDCK cells and “increase” in the test on MG63 cells [4]. In addition, the gene transfer efficiency entry in the test on L-929 cells [1] (1 μM nocodazole, treatment time 1 min to 120 min, plasma irradiation time 1 msec, vs without nocodazole (FIG. 6(B))) is reported as “marked increase”; with L-929 cells [1] (1 μM nocodazole, treatment time 1 min to 120 min, plasma irradiation time 5 msec, vs cells without nocodazole (FIG. 5(B))), “markedly increased”. The gene introduction rate entry in the test on L-929 cells [1] (plasma irradiation 1 msec) is “significantly increased”. Also, the “amount of exogenous gene DNA remaining in cells relative to cells without nocodazole treatment” value in the test on L-929 cells [5] is recorded as “about 1.44 times”.
`COC[C@H]1OC(=O)c2coc3c2[C@@]1(C)C1=C(C3=O)[C@@H]2CCC(=O)[C@@]2(C)C[C@H]1OC(C)=O` [wortmannin]: the “inhibitor concentration at which the gene transfer efficiency was further markedly increased” value with L-929 cells [1] (plasma irradiation 1 msec, 30 min inhibitor treatment (FIGS. 8 to 11)) was at most 0.01 µM.
